One assay addresses JAK-2 enzyme (Homo sapiens, UniProt O60674). As to the kind of experiment: JAK2 inhibition assay (radiometric 33P filter assay). It is filed as biochemical. The method, boiled down:
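JAK-2 enzyme in 100 mM HEPES pH 7.4, 1 mM DTT, 10 mM MgCl2, 25 mM NaCl, 0.01% BSA, with final 12 μM [33P]ATP and 15 μM poly(Glu)4Tyr. Reactions ran 20 min at 25 °C and were stopped with TCA. 33P incorporation was counted after glass-fibre filtration.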

In the next assay the target is T1, JAK3 (Homo sapiens, UniProt P52333).
T1 sequence (P52333 1-1124): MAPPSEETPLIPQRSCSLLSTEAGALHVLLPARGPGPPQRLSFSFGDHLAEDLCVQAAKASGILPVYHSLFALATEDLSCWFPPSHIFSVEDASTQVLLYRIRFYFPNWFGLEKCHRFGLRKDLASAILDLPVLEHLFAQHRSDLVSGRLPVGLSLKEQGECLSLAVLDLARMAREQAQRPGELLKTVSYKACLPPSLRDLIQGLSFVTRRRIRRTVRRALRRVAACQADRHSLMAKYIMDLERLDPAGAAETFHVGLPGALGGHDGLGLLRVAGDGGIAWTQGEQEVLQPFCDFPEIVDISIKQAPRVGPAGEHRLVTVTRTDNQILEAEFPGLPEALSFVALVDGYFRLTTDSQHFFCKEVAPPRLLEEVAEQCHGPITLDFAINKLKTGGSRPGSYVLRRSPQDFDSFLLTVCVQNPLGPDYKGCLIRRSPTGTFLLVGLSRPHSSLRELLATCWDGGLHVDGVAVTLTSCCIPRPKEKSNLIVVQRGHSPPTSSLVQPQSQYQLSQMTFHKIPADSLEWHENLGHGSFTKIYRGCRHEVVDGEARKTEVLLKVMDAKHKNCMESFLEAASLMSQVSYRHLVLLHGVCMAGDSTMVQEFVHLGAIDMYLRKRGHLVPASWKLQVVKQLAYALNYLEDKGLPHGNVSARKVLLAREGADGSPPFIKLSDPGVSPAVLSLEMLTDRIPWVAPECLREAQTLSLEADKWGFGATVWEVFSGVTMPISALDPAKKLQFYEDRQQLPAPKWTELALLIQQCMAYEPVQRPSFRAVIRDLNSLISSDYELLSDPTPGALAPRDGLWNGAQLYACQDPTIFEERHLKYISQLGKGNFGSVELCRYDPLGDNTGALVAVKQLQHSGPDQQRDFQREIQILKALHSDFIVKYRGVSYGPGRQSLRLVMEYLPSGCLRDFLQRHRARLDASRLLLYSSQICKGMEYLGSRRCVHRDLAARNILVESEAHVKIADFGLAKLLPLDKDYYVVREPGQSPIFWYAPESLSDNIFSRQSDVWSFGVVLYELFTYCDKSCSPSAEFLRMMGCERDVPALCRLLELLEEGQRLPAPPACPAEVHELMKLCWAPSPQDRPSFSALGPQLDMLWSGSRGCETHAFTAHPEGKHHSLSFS
As to the kind of experiment: JAK3 inhibition assay (radiometric 33P filter assay). In kind it is biochemical. The method, boiled down: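 Final conditions were 1 nM JAK3, 5 μM ATP (200 uCi/μmole) and 1 μM poly(Glu)4Tyr in 100 mM HEPES pH 7.4, 10 mM MgCl2, 25 mM NaCl, 1 mM DTT and 0.01% BSA. After 20 min at 25 °C the reaction was stopped with TCA. 33P incorporation was counted after glass-fibre filtration.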

[1] abbreviates: 15 μM poly(Glu)4Tyr, 12 μM ATP, read-out: JAK2 inhibition data (Ki).
Setting [2] is: 1 μM poly(Glu)4Tyr, 5 μM ATP, 1 nM JAK3, 25° C., read-out: JAK3 inhibition data (Ki).

Read-outs that look alike come from different tables or passages of the source.

Sequence of JAK-2 enzyme (O60674 whole entry, species assumed): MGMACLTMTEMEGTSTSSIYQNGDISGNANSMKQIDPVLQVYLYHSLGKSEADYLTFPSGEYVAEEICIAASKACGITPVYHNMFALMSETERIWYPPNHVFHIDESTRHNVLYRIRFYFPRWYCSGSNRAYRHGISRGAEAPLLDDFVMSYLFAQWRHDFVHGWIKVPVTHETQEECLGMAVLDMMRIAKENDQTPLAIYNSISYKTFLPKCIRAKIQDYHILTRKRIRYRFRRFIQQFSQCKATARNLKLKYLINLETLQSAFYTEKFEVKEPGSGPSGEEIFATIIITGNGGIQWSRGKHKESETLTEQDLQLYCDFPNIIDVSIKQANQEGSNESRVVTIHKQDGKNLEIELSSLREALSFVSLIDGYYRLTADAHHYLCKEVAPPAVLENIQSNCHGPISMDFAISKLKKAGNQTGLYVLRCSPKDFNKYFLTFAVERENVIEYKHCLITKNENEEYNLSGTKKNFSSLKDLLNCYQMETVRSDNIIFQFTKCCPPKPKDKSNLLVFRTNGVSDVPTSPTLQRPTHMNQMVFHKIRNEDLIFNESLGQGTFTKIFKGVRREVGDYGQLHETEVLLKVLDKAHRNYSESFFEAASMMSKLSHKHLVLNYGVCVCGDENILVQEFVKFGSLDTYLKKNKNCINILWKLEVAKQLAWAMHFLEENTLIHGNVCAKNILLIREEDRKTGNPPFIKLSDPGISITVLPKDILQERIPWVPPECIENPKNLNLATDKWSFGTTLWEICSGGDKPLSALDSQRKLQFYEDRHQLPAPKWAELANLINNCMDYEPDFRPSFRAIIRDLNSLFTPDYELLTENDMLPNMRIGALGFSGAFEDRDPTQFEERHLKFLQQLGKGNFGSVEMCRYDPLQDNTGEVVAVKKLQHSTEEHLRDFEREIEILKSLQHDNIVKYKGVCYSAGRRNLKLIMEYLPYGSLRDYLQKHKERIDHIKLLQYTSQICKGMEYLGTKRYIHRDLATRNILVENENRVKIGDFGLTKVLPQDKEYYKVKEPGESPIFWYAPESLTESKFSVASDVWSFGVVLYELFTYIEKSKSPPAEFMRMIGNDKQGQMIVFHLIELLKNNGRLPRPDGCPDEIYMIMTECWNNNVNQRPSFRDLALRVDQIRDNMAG

Consider `CCS(=O)(=O)N1CCN(c2ccc(Nc3nc(N)n(-c4ccnc(N5CCCN(C(=O)OC(C)C)CC5)c4)n3)cc2)CC1` [Compound 155], for which the Ki at JAK-2 enzyme (setting [1]) and at JAK3 (setting [2]) was 0.05 to 0.5 µM each time.

Consider `CC(=O)N1[C@H](C)CN(c2cc(-n3nc(Nc4ccc(N)cc4)nc3N)ccn2)C[C@@H]1C` [Compound 99], for which the Ki at JAK-2 enzyme (setting [1]) and at JAK3 (setting [2]) was below 0.05 µM in each case.

With `CCCOC(=O)N1CCN(c2ccc(Nc3nc(N)n(-c4ccnc(N5CCCN(C(=O)CC#N)CC5)c4)n3)cc2)CC1` [Compound 140], the Ki on JAK-2 enzyme (setting [1]) and at JAK3 (setting [2]) was below 0.05 µM each time.

Regarding `COC(=O)Nc1ccc(Nc2nc(N)n(-c3cc(N4C[C@@H](C)N(C(C)=O)[C@@H](C)C4)ncn3)n2)cc1` [Compound 75], the Ki at JAK-2 enzyme (setting [1]) and on JAK3 (setting [2]) was below 0.05 µM throughout.

As for `CC(=O)N1CCCN(c2cc(-n3nc(Nc4ccc(NC(=O)Oc5ccc(C)cc5)cc4)nc3N)ncn2)CC1` [Compound 96], the Ki at JAK-2 enzyme (setting [1]) and at JAK3 (setting [2]) was below 0.05 µM throughout.

In the case of `COC(=O)N1CCCN(c2cc(-n3nc(Nc4ccc(N5CCOCC5)cc4)nc3N)ncn2)CC1` [Compound 8], the Ki on JAK-2 enzyme (setting [1]) and at JAK3 (setting [2]) was below 0.05 µM each time.

`CCOC(=O)N(C)c1ccc(Nc2nc(N)n(-c3cc(N4CCCN(C(C)=O)CC4)ncn3)n2)cc1` [Compound 127]: the Ki at JAK-2 enzyme (setting [1]) and at JAK3 (setting [2]) was below 0.05 µM in each case.

Consider `CCOC(=O)N1CCCN(c2cc(-n3nc(Nc4ccc(N5CCN(C(=O)OC(C)C)CC5)cc4)nc3N)ccn2)CC1` [Compound 157], for which the Ki at JAK-2 enzyme (setting [1]) and at JAK3 (setting [2]) was 0.05 to 0.5 µM in each case.

Regarding `CC(=O)N1CCCN(c2cc(-n3nc(Nc4ccc(N5CCN(C(=O)CC(C)C)CC5)cc4)nc3N)ncn2)CC1` [Compound 38], the Ki at JAK-2 enzyme (setting [1]) and on JAK3 (setting [2]) was below 0.05 µM in each case.

Consider `N#CCC(=O)N1CCCN(c2cc(-n3nc(Nc4ccc(N5CCNCC5)cc4)nc3N)ncn2)CC1` [Compound 123], for which the Ki at JAK-2 enzyme (setting [1]) and at JAK3 (setting [2]) was below 0.05 µM in each case.

As to `CC(=O)N1CCCN(c2cc(-n3nc(Nc4ccc(N(C)C(=O)Oc5ccccc5)cc4)nc3N)ncn2)CC1` [Compound 134], the Ki on JAK-2 enzyme and on JAK3 was below 0.05 µM throughout.

Regarding `CC(=O)N1CCCN(c2cc(-n3nc(Nc4ccc(N)cc4)nc3N)ncn2)CC1` [Compound 20], the Ki on JAK-2 enzyme (setting [1]) and on JAK3 (setting [2]) was below 0.05 µM throughout.

As for `CC(=O)N1[C@H](C)CN(c2cc(-n3nc(Nc4ccc(NC(=O)Oc5ccc(C)cc5)cc4)nc3N)ncn2)C[C@@H]1C` [Compound 81], the Ki at JAK-2 enzyme (setting [1]) and on JAK3 (setting [2]) was below 0.05 µM in each case.

`CCCOC(=O)N1CCN(c2ccc(Nc3nc(N)n(-c4ccnc(N5CCCN(S(C)(=O)=O)CC5)c4)n3)cc2)CC1` [Compound 162]: the Ki at JAK-2 enzyme (setting [1]) and at JAK3 (setting [2]) was 0.05 to 0.5 µM in each case.

Regarding `CC(=O)N1CCCN(c2cc(-n3nc(Nc4ccc(N5CCN(C(=O)OC6CCOC6)CC5)cc4)nc3N)ncn2)CC1` (centres unmarked) [Compound 43], the Ki on JAK-2 enzyme (setting [1]) and on JAK3 (setting [2]) was below 0.05 µM throughout.

Turning to `CC(=O)N1[C@H](C)CN(c2cc(-n3nc(Nc4ccc(N5CCN(C(=O)OCC(C)C)CC5)cc4)nc3N)ncn2)C[C@@H]1C` [Compound 58], the Ki at JAK-2 enzyme (setting [1]) and on JAK3 (setting [2]) was below 0.05 µM each time.

For the compound `Nc1nc(Nc2ccc(N3CCOCC3)cc2)nn1-c1cc(N2CCCCCC2)ncn1` [Compound 15], the Ki at JAK-2 enzyme (setting [1]) and at JAK3 (setting [2]) was below 0.05 µM throughout.

Take `CCCOC(=O)N1CCN(c2ccc(Nc3nc(N)n(-c4ccnc(N5CCCN(C(=O)OC(C)C)CC5)c4)n3)cc2)CC1` [Compound 161]: the Ki on JAK-2 enzyme (setting [1]) and on JAK3 (setting [2]) was 0.05 to 0.5 µM in each case.

Turning to `CC(=O)N1CCCN(c2cc(-n3nc(Nc4ccc(N5CCN(C(=O)C6CC6)CC5)cc4)nc3N)ncn2)CC1` [Compound 39], the Ki at JAK-2 enzyme (setting [1]) and on JAK3 (setting [2]) was below 0.05 µM in each case.

With `CCOC(=O)Nc1ccc(Nc2nc(N)n(-c3ccnc(N4CCCN(C(C)=O)CC4)c3)n2)cc1` [Compound 171], the Ki (as a rule, the equilibrium dissociation constant of an inhibitor or competing ligand from its target) is 0.05 to 0.5 µM at JAK-2 enzyme (setting [1]) and below 0.05 µM on JAK3 (setting [2]).

For `CCCOC(=O)N1CCN(c2ccc(Nc3nc(N)n(-c4ccnc(N5C[C@@H](C)N(C(C)=O)[C@@H](C)C5)c4)n3)cc2)CC1` [Compound 139], the Ki at JAK-2 enzyme (setting [1]) and on JAK3 (setting [2]) was below 0.05 µM throughout.

Turning to `CC(=O)N1[C@H](C)CN(c2cc(-n3nc(Nc4ccc(N(C)C(=O)Oc5ccc(C)cc5)cc4)nc3N)ncn2)C[C@@H]1C` [Compound 121], the Ki on JAK-2 enzyme and at JAK3 was below 0.05 µM throughout.

For the compound `CC(=O)N1CCCN(c2cc(-n3nc(Nc4ccc(NC(=O)NC(C)C)cc4)nc3N)ncn2)CC1` [Compound 86], the Ki at JAK-2 enzyme (setting [1]) and at JAK3 (setting [2]) was below 0.05 µM throughout.

For the compound `CC(=O)N1[C@H](C)CN(c2cc(-n3nc(Nc4ccc(N5CCN(C(=O)OC(C)C)CC5)cc4)nc3N)ncn2)C[C@@H]1C` [Compound 56], the Ki at JAK-2 enzyme (setting [1]) and on JAK3 (setting [2]) was below 0.05 µM each time.

In the case of `CCOC(=O)N1CCN(c2ccc(Nc3nc(N)n(-c4cc(N5C[C@@H](C)N(C(C)=O)[C@@H](C)C5)ncn4)n3)cc2)CC1` [Compound 54], the Ki at JAK-2 enzyme (setting [1]) and on JAK3 (setting [2]) was below 0.05 µM throughout.

Consider `Cc1ccc(OC(=O)Nc2ccc(Nc3nc(N)n(-c4cc(N5CCCN(C(=O)CC#N)CC5)ncn4)n3)cc2)cc1` [Compound 138], for which the Ki on JAK-2 enzyme (setting [1]) and at JAK3 (setting [2]) was below 0.05 µM each time.

`CC(=O)N1CCCN(c2cc(-n3nc(Nc4ccc(N5CCN(C(=O)Oc6ccc(C)cc6)CC5)cc4)nc3N)ncn2)CC1` [Compound 51]: the Ki at JAK-2 enzyme (setting [1]) and at JAK3 (setting [2]) was below 0.05 µM in each case.

Take `CC(=O)N1CCCN(c2cc(-n3nc(Nc4ccc(NC(=O)OC(C)C)cc4)nc3N)ncn2)CC1` [Compound 93]: the Ki at JAK-2 enzyme (setting [1]) and at JAK3 (setting [2]) was below 0.05 µM throughout.

For `COC(=O)N1CCN(c2ccc(Nc3nc(N)n(-c4cc(N5CCCN(C(C)=O)CC5)ncn4)n3)cc2)CC1` [Compound 45], the inhibitory constant (Ki) on JAK-2 enzyme (setting [1]) and at JAK3 (setting [2]) was below 0.05 µM each time.

As for `Nc1nc(Nc2ccc(N3CCOCC3)cc2)nn1-c1cc(N2CCCN(C(=O)CC(F)(F)F)CC2)ncn1` [Compound 9], the Ki on JAK-2 enzyme (setting [1]) and at JAK3 (setting [2]) was below 0.05 µM each time.

As to `CNc1ccc(Nc2nc(N)n(-c3cc(N4C[C@@H](C)N(C(C)=O)[C@@H](C)C4)ncn3)n2)cc1` [Compound 116], the Ki on JAK-2 enzyme (setting [1]) and on JAK3 (setting [2]) was below 0.05 µM throughout.

Turning to `CCCOC(=O)N(C)c1ccc(Nc2nc(N)n(-c3cc(N4CCCN(C(C)=O)CC4)ncn3)n2)cc1` [Compound 129], the Ki at JAK-2 enzyme (setting [1]) and at JAK3 (setting [2]) was below 0.05 µM each time.

For `CC(=O)N1[C@H](C)CN(c2cc(-n3nc(Nc4ccc(N(C)C(=O)OC(C)(C)C)cc4)nc3N)ncn2)C[C@@H]1C` [Compound 114], the Ki at JAK-2 enzyme (setting [1]) and at JAK3 (setting [2]) was below 0.05 µM each time.

As to `CCCCOC(=O)Nc1ccc(Nc2nc(N)n(-c3ccnc(N4CCCN(C(C)=O)CC4)c3)n2)cc1` [Compound 174], the Ki on JAK-2 enzyme (setting [1]) and at JAK3 (setting [2]) was 0.05 to 0.5 µM in each case.

Turning to `CC(=O)N1[C@H](C)CN(c2cc(-n3nc(Nc4ccc(N5CCN(C(=O)OC(C)C)CC5)cc4)nc3N)ccn2)C[C@@H]1C` [Compound 143], the Ki on JAK-2 enzyme (setting [1]) and on JAK3 (setting [2]) was below 0.05 µM each time.

Consider `CCOC(=O)N1CCN(c2ccc(Nc3nc(N)n(-c4cc(N5CCCN(C(C)=O)CC5)ncn4)n3)cc2)CC1` [Compound 46], for which the Ki at JAK-2 enzyme (setting [1]) and at JAK3 (setting [2]) was below 0.05 µM in each case.

`Nc1nc(Nc2ccc(N3CCOCC3)cc2)nn1-c1ccnc(N2CC3CCC(CC3)C2)c1` [Compound 18]: the Ki on JAK-2 enzyme (setting [1]) and at JAK3 (setting [2]) was below 0.05 µM in each case.

For the origin of these results see US7329652B2, “Diaminotriazole compounds useful as protein kinase inhibitors” (Vertex Pharamaceuticals Incorporated, priority 2004, dated 2008).
